Data published in ChEMBL document CHEMBL1240347, “MK-7009, a potent and selective inhibitor of hepatitis C virus NS3/4A protease” (Antimicrob Agents Chemother, 2010).

Biological target: T1, Cathepsin L2 (Homo sapiens, UniProt O60911)
T1 sequence (O60911 whole entry): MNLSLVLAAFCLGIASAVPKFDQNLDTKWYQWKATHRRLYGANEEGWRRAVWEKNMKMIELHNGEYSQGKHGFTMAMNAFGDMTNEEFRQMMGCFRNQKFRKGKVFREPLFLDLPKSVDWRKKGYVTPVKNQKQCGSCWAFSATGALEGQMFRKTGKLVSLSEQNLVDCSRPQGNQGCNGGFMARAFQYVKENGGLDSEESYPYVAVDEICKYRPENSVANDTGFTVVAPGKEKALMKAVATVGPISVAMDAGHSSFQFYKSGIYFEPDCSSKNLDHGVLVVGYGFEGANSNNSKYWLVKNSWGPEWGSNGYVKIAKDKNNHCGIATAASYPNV
Test: Inhibition of human Cathepsin V

CC[C@@H]1C[C@]1(NC(=O)[C@@H]1C[C@@H]2CN1C(=O)[C@H](C(C)(C)C)NC(=O)OCC(C)(C)CCCCc1cccc3c1CN(C3)C(=O)O2)C(=O)NS(=O)(=O)C1CC1 [VANIPREVIR]
IC50: > 10 µM
